Results taken from ChEMBL document CHEMBL1139698, “Potent, selective pyrimidinetrione-based inhibitors of MMP-13” (Bioorg Med Chem Lett, 2006).
pIC50: −log10 of the molar value.

Legend:
Homo sapiens [1] = organism: Homo sapiens; test: Selectivity for MMP13 over MMP8
Collagenase 3 [2] = molecular target: T1, Collagenase 3 (Homo sapiens, UniProt P45452)
Homo sapiens [3] = organism: Homo sapiens; test: Selectivity for MMP13 over MMP2
Homo sapiens [4] = organism: Homo sapiens; test: Selectivity for MMP13 over MMP12
Homo sapiens [5] = organism: Homo sapiens; test: Selectivity for MMP13 over MMP3
Cartilage tissue = test: Inhibition of bovine nasal cartilage degradation; assay type: functional, tissue-based; details: Bos taurus
Collagenase 3 [6] = molecular target: T1, Collagenase 3; test: Inhibition of MMP13 in hamster synovial fluid; details: Cricetulus griseus
[7] = Plasma protein binding in rat; assay type: ADME, cell-free; details: read-out: PPB
Homo sapiens [8] = organism: Homo sapiens; test: Selectivity for MMP13 over MMP14
[9] = molecular target: Matrix metalloproteinase (1 and 13) (Homo sapiens) (UniProt P45452+P03956); test: Selectivity for MMP13 over MMP1; assay type: protein assay
[10] = Volume of distribution in rat; assay type: ADME, organism-based; details: in vivo, read-out: Vdss
Homo sapiens [11] = organism: Homo sapiens; test: Selectivity for MMP13 over MMP9
Collagenase 3 [12] = molecular target: Collagenase 3 (Rattus norvegicus, UniProt P23097); test: Inhibition of MMP13 in rat plasma; assay type: cell-free
[13] = Half life in rat; assay type: ADME, organism-based; details: in vivo
[14] = Plasma clearance in rat; assay type: ADME, organism-based

Matrix metalloproteinase (1 and 13) (Homo sapiens), sequence (P03956 whole entry, looked up, other chains not shown): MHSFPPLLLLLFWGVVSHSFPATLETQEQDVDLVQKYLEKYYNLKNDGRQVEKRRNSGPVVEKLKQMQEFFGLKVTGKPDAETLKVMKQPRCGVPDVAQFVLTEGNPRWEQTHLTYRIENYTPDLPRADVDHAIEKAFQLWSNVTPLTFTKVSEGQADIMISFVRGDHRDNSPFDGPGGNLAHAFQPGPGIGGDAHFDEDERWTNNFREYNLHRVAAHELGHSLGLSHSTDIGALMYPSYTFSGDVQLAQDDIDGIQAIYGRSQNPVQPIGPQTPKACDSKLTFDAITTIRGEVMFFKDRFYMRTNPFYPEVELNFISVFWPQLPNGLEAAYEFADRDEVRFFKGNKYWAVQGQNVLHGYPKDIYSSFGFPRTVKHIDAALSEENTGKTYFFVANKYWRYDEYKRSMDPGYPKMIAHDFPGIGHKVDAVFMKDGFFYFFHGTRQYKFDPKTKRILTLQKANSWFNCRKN

Compound `CCOCCC1(Oc2ccc(Oc3ccc(-c4nc(-c5ccccc5)no4)cc3)cc2)C(=O)NC(=O)NC1=O` has a Selectivity ratio (Homo sapiens [1]) of 208, a pIC50 (Collagenase 3 [2]) of 8.47 and a Selectivity ratio (Homo sapiens [3]) of 54. For the same compound, the Selectivity ratio (Homo sapiens [4]) was 138.

For `CCOCCC1(Oc2ccc(Oc3ccc(C(=O)NCc4cccnc4)cc3)cc2)C(=O)NC(=O)NC1=O`, the pIC50 (Collagenase 3 [2]) was 8.59, the Selectivity ratio (Homo sapiens [3]) was 26 and the Selectivity ratio (Homo sapiens [4]) was 27.

Work on `CCOCCC1(Oc2ccc(Oc3ccc(-c4nnc(-c5ccccc5)o4)cc3)cc2)C(=O)NC(=O)NC1=O` yielded a Selectivity ratio (Homo sapiens [1]) of 98, a pIC50 (Collagenase 3 [2]) of 7.92 and a Selectivity ratio (Homo sapiens [3]) of 66. The Selectivity ratio (Homo sapiens [4]) was 126.

With `COCCC1(Oc2ccc(Oc3ccc(-c4nc(-c5cccc(C#N)c5)co4)cc3)cc2)C(=O)NC(=O)NC1=O` the Selectivity ratio (Homo sapiens [1]) was 140, the pIC50 (Collagenase 3 [2]) was 9.20 and the Selectivity ratio (Homo sapiens [3]) was 29. For the same compound, the Selectivity ratio (Homo sapiens [4]) was 181.

`CCOCCC1(Oc2ccc(Oc3ccc(-c4nc(-c5ccccc5C#N)co4)cc3)cc2)C(=O)NC(=O)NC1=O` gave a Selectivity ratio (Homo sapiens [1]) of 569, a pIC50 (Collagenase 3 [2]) of 9.06 and a Selectivity ratio (Homo sapiens [3]) of 142. The Selectivity ratio (Homo sapiens [4]) was 178.

Compound `CCOCCC1(Oc2ccc(Oc3ccc(-c4cnc(-c5ccccc5)o4)cc3)cc2)C(=O)NC(=O)NC1=O` has a Selectivity ratio (Homo sapiens [1]) of 212, a pIC50 (Collagenase 3 [2]) of 8.77 and a Selectivity ratio (Homo sapiens [3]) of 165. For the same compound, the Selectivity ratio (Homo sapiens [4]) was 309.

`CCOCCC1(Oc2ccc(Oc3ccc(-c4nc(-c5cccnc5)co4)cc3)cc2)C(=O)NC(=O)NC1=O` showed a Selectivity ratio (Homo sapiens [1]) of 265, a pIC50 (Collagenase 3 [2]) of 9.47 and a Selectivity ratio (Homo sapiens [3]) of 38. For the same compound, the Selectivity ratio (Homo sapiens [4]) was 124.

In the case of `CCOCCC1(Oc2ccc(Oc3ccc(-c4nc(-c5ccncc5)co4)cc3)cc2)C(=O)NC(=O)NC1=O`, the Selectivity ratio (Homo sapiens [1]) was 250, the pIC50 (Collagenase 3 [2]) was 9.40 and the Selectivity ratio (Homo sapiens [3]) was 70. The Selectivity ratio (Homo sapiens [4]) was 530.

With `CCOCCC1(Oc2ccc(Oc3ccc(C(=O)NCc4ccccc4F)cc3)cc2)C(=O)NC(=O)NC1=O` the Selectivity ratio (Homo sapiens [1]) was 27, the pIC50 (Collagenase 3 [2]) was 8.96 and the Selectivity ratio (Homo sapiens [3]) was 55. The Selectivity ratio (Homo sapiens [4]) was 80.

Compound `CCOCCC1(Oc2ccc(Oc3ccc(-c4nc(-c5ccccc5F)no4)cc3)cc2)C(=O)NC(=O)NC1=O` has a Selectivity ratio (Homo sapiens [1]) of 167, a pIC50 (Collagenase 3 [2]) of 8.48 and a Selectivity ratio (Homo sapiens [3]) of 102. It also gave a Selectivity ratio (Homo sapiens [4]) of 176.

For `CCOCCC1(Oc2ccc(Oc3ccc(-c4nc(-c5cccc(F)c5)co4)cc3)cc2)C(=O)NC(=O)NC1=O`, the Selectivity ratio (Homo sapiens [1]) was 133, the pIC50 (Collagenase 3 [2]) was 9.44 and the Selectivity ratio (Homo sapiens [3]) was 292. For the same compound, the Selectivity ratio (Homo sapiens [4]) was 906.

Compound `COCCC1(Oc2ccc(Oc3ccc(-c4nc(-c5ccccc5C#N)co4)cc3)cc2)C(=O)NC(=O)NC1=O` has a Selectivity ratio (Homo sapiens [1]) of 516, a pIC50 (Collagenase 3 [2]) of 9.14 and a Selectivity ratio (Homo sapiens [3]) of 173. The Selectivity ratio (Homo sapiens [4]) was 342.

`CCOCCC1(Oc2ccc(Oc3ccc(C(=O)Nc4cccnc4)cc3)cc2)C(=O)NC(=O)NC1=O` gave a Selectivity ratio (Homo sapiens [1]) of 120, a pIC50 (Collagenase 3 [2]) of 9.40 and a Selectivity ratio (Homo sapiens [3]) of 63. It also gave a Selectivity ratio (Homo sapiens [4]) of 190.

Work on `CCOCCC1(Oc2ccc(Oc3ccc(-c4cc(-c5ccccc5)no4)cc3)cc2)C(=O)NC(=O)NC1=O` yielded a Selectivity ratio (Homo sapiens [1]) of 571, a pIC50 (Collagenase 3 [2]) of 8.80 and a Selectivity ratio (Homo sapiens [3]) of 11. It also gave a Selectivity ratio (Homo sapiens [4]) of 38.

In the case of `COCCC1(Oc2ccc(Oc3ccc(-c4nc(-c5ccc(F)cc5)co4)cc3)cc2)C(=O)NC(=O)NC1=O`, the Selectivity ratio (Homo sapiens [1]) was 338, the pIC50 (Collagenase 3 [2]) was 9.24 and the Selectivity ratio (Homo sapiens [3]) was 356. For the same compound, the Selectivity ratio (Homo sapiens [4]) was 960.

In the case of `CCOCCC1(Oc2ccc(Oc3ccc(C(=O)NCc4ccc(F)cc4)cc3)cc2)C(=O)NC(=O)NC1=O`, the pIC50 (Collagenase 3 [2]) was 8.47, the Selectivity ratio (Homo sapiens [3]) was 17 and the Selectivity ratio (Homo sapiens [4]) was 11.

With `CCOCCC1(Oc2ccc(Oc3ccc(C(=O)Nc4ccccn4)cc3)cc2)C(=O)NC(=O)NC1=O` the Selectivity ratio (Homo sapiens [1]) was 15, the pIC50 (Collagenase 3 [2]) was 8.41 and the Selectivity ratio (Homo sapiens [3]) was 27. For the same compound, the Selectivity ratio (Homo sapiens [4]) was 27.

Work on `CCOCCC1(Oc2ccc(Oc3ccc(-c4nc(-c5cccc(C#N)c5)co4)cc3)cc2)C(=O)NC(=O)NC1=O` yielded a Selectivity ratio (Homo sapiens [1]) of 155, a pIC50 (Collagenase 3 [2]) of 9.28 and a Selectivity ratio (Homo sapiens [3]) of 58. The Selectivity ratio (Homo sapiens [4]) was 134.

`COCCC1(Oc2ccc(Oc3ccc(-c4nc(-c5ccccc5F)co4)cc3)cc2)C(=O)NC(=O)NC1=O` gave a Selectivity ratio (Homo sapiens [1]) of 149, a pIC50 (Collagenase 3 [2]) of 8.85 and a Selectivity ratio (Homo sapiens [3]) of 288. For the same compound, the Selectivity ratio (Homo sapiens [4]) was 605.

`CCOCCC1(Oc2ccc(Oc3ccc(-c4nc(-c5cccc(F)c5)no4)cc3)cc2)C(=O)NC(=O)NC1=O` gave a Selectivity ratio (Homo sapiens [1]) of 95, a pIC50 (Collagenase 3 [2]) of 8.11 and a Selectivity ratio (Homo sapiens [3]) of 88. It also gave a Selectivity ratio (Homo sapiens [4]) of 56.

`CCOCCC1(Oc2ccc(Oc3ccc(-c4nc(-c5ccc(F)cc5)co4)cc3)cc2)C(=O)NC(=O)NC1=O` gave a Selectivity ratio (Homo sapiens [1]) of 243, a pIC50 (Collagenase 3 [2]) of 9.17 and a Selectivity ratio (Homo sapiens [3]) of 455. For the same compound, the Selectivity ratio (Homo sapiens [4]) was 573.

In the case of `CCOCCC1(Oc2ccc(Oc3ccc(C(=O)NCc4ccccc4)cc3)cc2)C(=O)NC(=O)NC1=O`, the pIC50 (Collagenase 3 [2]) was 8.10, the Selectivity ratio (Homo sapiens [3]) was 21 and the Selectivity ratio (Homo sapiens [4]) was 27.

Work on `CCOCCC1(Oc2ccc(Oc3ccc(-c4nc(-c5ccc(C#N)cc5)co4)cc3)cc2)C(=O)NC(=O)NC1=O` yielded a Selectivity ratio (Homo sapiens [1]) of 233, a pIC50 (Collagenase 3 [2]) of 9.35 and a Selectivity ratio (Homo sapiens [3]) of 429. The Selectivity ratio (Homo sapiens [4]) was 373.

Compound `CCOCCC1(Oc2ccc(Oc3ccc(C(=O)NCc4ccccn4)cc3)cc2)C(=O)NC(=O)NC1=O` has a pIC50 (Collagenase 3 [2]) of 8.21, a Selectivity ratio (Homo sapiens [3]) of 17 and a Selectivity ratio (Homo sapiens [4]) of 30.

Work on `CCOCCC1(Oc2ccc(Oc3ccc(-c4nc(-c5ccccn5)co4)cc3)cc2)C(=O)NC(=O)NC1=O` yielded a Selectivity ratio (Homo sapiens [1]) of 57, a pIC50 (Collagenase 3 [2]) of 9.00 and a Selectivity ratio (Homo sapiens [3]) of 74. The Selectivity ratio (Homo sapiens [4]) was 158.

With `CCOCCC1(Oc2ccc(Oc3ccc(-c4ncc(-c5ccccc5)o4)cc3)cc2)C(=O)NC(=O)NC1=O` the Selectivity ratio (Homo sapiens [1]) was 43, the pIC50 (Collagenase 3 [2]) was 8.12 and the Selectivity ratio (Homo sapiens [3]) was 144. The Selectivity ratio (Homo sapiens [4]) was 103.

In the case of `COCCC1(Oc2ccc(Oc3ccc(-c4nc(-c5ccc(C#N)cc5)co4)cc3)cc2)C(=O)NC(=O)NC1=O`, the Selectivity ratio (Homo sapiens [5]) was 1700, the pIC50 (Cartilage tissue) was 7.40 and the ED50 (Collagenase 3 [6]) was 1 mg/kg. It also gave a Selectivity ratio (Homo sapiens [1]) of 394, a fraction unbound [7] of less than 0.01 and a Selectivity ratio (Homo sapiens [8]) of 540. It also gave a pIC50 (Collagenase 3 [2]) of 9.08, a Selectivity ratio [9] of 2400 and a Selectivity ratio (Homo sapiens [3]) of 397. It also gave a Vd [10] of 0.34 L/kg, a Selectivity ratio (Homo sapiens [11]) of 540 and a pIC50 (Collagenase 3 [12]) of 5.14. The half-life [13] was 6.9 h, the Selectivity ratio (Homo sapiens [4]) was 619 and the clearance [14] was 0.63 mL/min/kg.

For `COCCC1(Oc2ccc(Oc3ccc(-c4nc(-c5cccc(F)c5)co4)cc3)cc2)C(=O)NC(=O)NC1=O`, the Selectivity ratio (Homo sapiens [1]) was 152, the pIC50 (Collagenase 3 [2]) was 9.34 and the Selectivity ratio (Homo sapiens [3]) was 239. For the same compound, the Selectivity ratio (Homo sapiens [4]) was 1310.

Compound `CCOCCC1(Oc2ccc(Oc3ccc(-c4nc(-c5ccncc5)no4)cc3)cc2)C(=O)NC(=O)NC1=O` has a Selectivity ratio (Homo sapiens [1]) of 555, a pIC50 (Collagenase 3 [2]) of 9.27 and a Selectivity ratio (Homo sapiens [3]) of 291. The Selectivity ratio (Homo sapiens [4]) was 232.

`CCOCCC1(Oc2ccc(Oc3ccc(-c4noc(-c5ccccc5)n4)cc3)cc2)C(=O)NC(=O)NC1=O` gave a pIC50 (Collagenase 3 [2]) of 9.08, a Selectivity ratio (Homo sapiens [3]) of 27 and a Selectivity ratio (Homo sapiens [4]) of 37.

For `CCOCCC1(Oc2ccc(Oc3ccc(C(=O)Nc4ccccc4)cc3)cc2)C(=O)NC(=O)NC1=O`, the Selectivity ratio (Homo sapiens [1]) was 200, the pIC50 (Collagenase 3 [2]) was 9.08 and the Selectivity ratio (Homo sapiens [3]) was 58. For the same compound, the Selectivity ratio (Homo sapiens [4]) was 50.

Compound `CCOCCC1(Oc2ccc(Oc3ccc(-c4nc(-c5ccccc5)co4)cc3)cc2)C(=O)NC(=O)NC1=O` has a Selectivity ratio (Homo sapiens [1]) of 115, a pIC50 (Collagenase 3 [2]) of 8.62 and a Selectivity ratio (Homo sapiens [3]) of 58. It also gave a Selectivity ratio (Homo sapiens [4]) of 259.

`CCOCCC1(Oc2ccc(Oc3ccc(-c4nc(-c5ccccc5F)co4)cc3)cc2)C(=O)NC(=O)NC1=O` gave a Selectivity ratio (Homo sapiens [1]) of 270, a pIC50 (Collagenase 3 [2]) of 9.03 and a Selectivity ratio (Homo sapiens [3]) of 562. The Selectivity ratio (Homo sapiens [4]) was 868.

With `CCOCCC1(Oc2ccc(Oc3ccc(-c4nc(-c5ccc(F)cc5)no4)cc3)cc2)C(=O)NC(=O)NC1=O` the Selectivity ratio (Homo sapiens [1]) was 210, the pIC50 (Collagenase 3 [2]) was 8.21 and the Selectivity ratio (Homo sapiens [3]) was 80. It also gave a Selectivity ratio (Homo sapiens [4]) of 114.

`CCOCCC1(Oc2ccc(Oc3ccc(C(=O)NCc4cccc(F)c4)cc3)cc2)C(=O)NC(=O)NC1=O` gave a Selectivity ratio (Homo sapiens [1]) of 25, a pIC50 (Collagenase 3 [2]) of 9.07 and a Selectivity ratio (Homo sapiens [3]) of 74. For the same compound, the Selectivity ratio (Homo sapiens [4]) was 120.

For `CCOCCC1(Oc2ccc(Oc3ccc(-c4nc(-c5cccnc5)no4)cc3)cc2)C(=O)NC(=O)NC1=O`, the Selectivity ratio (Homo sapiens [1]) was 320, the pIC50 (Collagenase 3 [2]) was 8.70 and the Selectivity ratio (Homo sapiens [3]) was 134. It also gave a Selectivity ratio (Homo sapiens [4]) of 504.
